Experimental data as given in US10870647B2, “Imidazopyridine derivative, method for preparing same, and pharmaceutical composition containing same as active ingredient for preventing or treating cancer” (DAEGU-GYEONGBUK MEDICAL INNOVATION FOUNDATION, priority 2016, dated 2020).

Experiments:
Assay in all cases: Kinase selectivity, scanMAX Kinase assay panel (DiscoverX), % control at 1 uM
Format in all cases: binding
[1] = biological target: T1, scanMAX Kinase assay panel (Homo sapiens, UniProt O60331); details: PIP5K1C; 1 uM; read-out: Percent Control (%)
T1 construct: purchased DiscoverX
Method in brief: (§1)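 Binding across the scanMAX kinase panel was tested at 1 uM compound. % control = (compound − positive control)/(negative control − positive control) × 100; below 35 counted as active.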

[2] = biological target: T2, scanMAX Kinase assay panel (Homo sapiens, UniProt Q9H1R3); details: MYLK2; 1 uM; read-out: Percent Control (%)
T2 construct: purchased DiscoverX
Method in brief: as §1

[3] = biological target: T3, scanMAX Kinase assay panel (Homo sapiens, UniProt Q5VT25); details: MRCKA; 1 uM; read-out: Percent Control (%)
T3 construct: purchased DiscoverX
Method in brief: as §1

[4] = biological target: T4, scanMAX Kinase assay panel (Homo sapiens, UniProt Q56UN5); details: YSK4; 1 uM; read-out: Percent Control (%)
T4 construct: purchased DiscoverX
T4 sequence (Q56UN5 1-1328): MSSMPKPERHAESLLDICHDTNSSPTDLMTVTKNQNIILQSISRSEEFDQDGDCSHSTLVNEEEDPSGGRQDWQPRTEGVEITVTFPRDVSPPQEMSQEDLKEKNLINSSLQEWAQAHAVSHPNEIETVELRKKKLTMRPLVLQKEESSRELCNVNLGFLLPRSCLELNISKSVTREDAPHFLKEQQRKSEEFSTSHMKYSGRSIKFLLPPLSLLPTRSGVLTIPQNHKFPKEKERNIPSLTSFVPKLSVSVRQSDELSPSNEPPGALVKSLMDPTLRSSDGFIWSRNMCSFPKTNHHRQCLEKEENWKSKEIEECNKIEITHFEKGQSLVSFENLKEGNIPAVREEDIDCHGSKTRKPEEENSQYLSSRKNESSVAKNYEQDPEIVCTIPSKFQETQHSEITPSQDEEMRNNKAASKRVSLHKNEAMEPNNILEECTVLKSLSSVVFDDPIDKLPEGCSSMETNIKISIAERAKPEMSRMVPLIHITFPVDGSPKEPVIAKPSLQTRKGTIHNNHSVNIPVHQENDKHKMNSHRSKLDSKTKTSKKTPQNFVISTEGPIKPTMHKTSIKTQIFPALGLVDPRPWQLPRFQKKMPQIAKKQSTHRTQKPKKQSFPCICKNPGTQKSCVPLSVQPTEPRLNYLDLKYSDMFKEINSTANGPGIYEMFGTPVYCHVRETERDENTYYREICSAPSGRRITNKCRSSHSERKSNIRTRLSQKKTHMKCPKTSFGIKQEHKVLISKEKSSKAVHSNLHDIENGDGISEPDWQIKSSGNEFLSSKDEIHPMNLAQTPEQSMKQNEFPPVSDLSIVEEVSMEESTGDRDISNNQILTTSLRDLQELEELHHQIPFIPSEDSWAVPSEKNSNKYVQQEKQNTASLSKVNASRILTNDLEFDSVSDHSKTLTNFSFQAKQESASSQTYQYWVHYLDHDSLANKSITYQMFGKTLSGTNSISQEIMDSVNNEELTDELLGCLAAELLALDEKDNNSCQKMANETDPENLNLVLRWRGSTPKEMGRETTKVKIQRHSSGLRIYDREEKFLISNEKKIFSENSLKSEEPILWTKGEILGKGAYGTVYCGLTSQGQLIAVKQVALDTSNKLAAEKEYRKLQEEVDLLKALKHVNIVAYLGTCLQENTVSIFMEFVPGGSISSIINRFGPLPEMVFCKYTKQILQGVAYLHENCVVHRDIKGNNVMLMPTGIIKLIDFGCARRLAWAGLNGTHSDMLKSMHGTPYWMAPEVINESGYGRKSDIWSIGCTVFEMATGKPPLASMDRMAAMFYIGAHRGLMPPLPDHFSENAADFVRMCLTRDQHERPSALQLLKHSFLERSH
Method in brief: as §1

[5] = biological target: T5, scanMAX Kinase assay panel (Homo sapiens, UniProt P49674); details: CSNK1E; 1 uM; read-out: Percent Control (%)
T5 construct: purchased DiscoverX
Method in brief: as §1

[6] = biological target: T6, scanMAX Kinase assay panel (Homo sapiens, UniProt Q5S007); details: LRRK2; 1 uM; read-out: Percent Control (%)
T6 construct: purchased DiscoverX
Method in brief: as §1

[7] = biological target: T7, scanMAX Kinase assay panel (Homo sapiens, UniProt Q13627); details: DYRK1A; 1 uM; read-out: Percent Control (%)
T7 construct: purchased DiscoverX
Method in brief: as §1

[8] = biological target: T8, scanMAX Kinase assay panel (Homo sapiens, UniProt Q96RR4); details: CAMKK2; 1 uM; read-out: Percent Control (%)
T8 construct: purchased DiscoverX
Method in brief: as §1

[9] = biological target: T9, scanMAX Kinase assay panel (Homo sapiens, UniProt Q9C098); details: DCAMKL3; 1 uM; read-out: Percent Control (%)
T9 construct: purchased DiscoverX
Method in brief: as §1

[10] = biological target: T10, scanMAX Kinase assay panel (Homo sapiens, UniProt Q13163); details: MEK5; 1 uM; read-out: Percent Control (%)
T10 construct: purchased DiscoverX
T10 sequence (Q13163 1-448): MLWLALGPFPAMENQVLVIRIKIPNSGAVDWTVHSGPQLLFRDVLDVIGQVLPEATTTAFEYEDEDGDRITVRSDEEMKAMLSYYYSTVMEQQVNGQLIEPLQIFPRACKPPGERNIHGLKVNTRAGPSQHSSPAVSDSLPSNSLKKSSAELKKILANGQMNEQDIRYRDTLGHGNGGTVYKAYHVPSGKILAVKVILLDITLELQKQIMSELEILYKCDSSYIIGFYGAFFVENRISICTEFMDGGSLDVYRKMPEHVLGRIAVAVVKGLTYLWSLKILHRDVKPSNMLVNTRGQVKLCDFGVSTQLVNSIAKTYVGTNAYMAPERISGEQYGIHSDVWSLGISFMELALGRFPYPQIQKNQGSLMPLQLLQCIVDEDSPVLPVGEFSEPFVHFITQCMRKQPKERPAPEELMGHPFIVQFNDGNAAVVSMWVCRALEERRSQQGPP
Method in brief: as §1

[11] = biological target: T11, scanMAX Kinase assay panel (Homo sapiens, UniProt Q9UPE1); details: SRPK3; 1 uM; read-out: Percent Control (%)
T11 construct: purchased DiscoverX
Method in brief: as §1

[12] = biological target: T12, scanMAX Kinase assay panel (Homo sapiens, UniProt P21802); details: FGFR2; 1 uM; read-out: Percent Control (%)
T12 construct: purchased DiscoverX
Method in brief: as §1

T9 sequence (Q9C098 whole entry): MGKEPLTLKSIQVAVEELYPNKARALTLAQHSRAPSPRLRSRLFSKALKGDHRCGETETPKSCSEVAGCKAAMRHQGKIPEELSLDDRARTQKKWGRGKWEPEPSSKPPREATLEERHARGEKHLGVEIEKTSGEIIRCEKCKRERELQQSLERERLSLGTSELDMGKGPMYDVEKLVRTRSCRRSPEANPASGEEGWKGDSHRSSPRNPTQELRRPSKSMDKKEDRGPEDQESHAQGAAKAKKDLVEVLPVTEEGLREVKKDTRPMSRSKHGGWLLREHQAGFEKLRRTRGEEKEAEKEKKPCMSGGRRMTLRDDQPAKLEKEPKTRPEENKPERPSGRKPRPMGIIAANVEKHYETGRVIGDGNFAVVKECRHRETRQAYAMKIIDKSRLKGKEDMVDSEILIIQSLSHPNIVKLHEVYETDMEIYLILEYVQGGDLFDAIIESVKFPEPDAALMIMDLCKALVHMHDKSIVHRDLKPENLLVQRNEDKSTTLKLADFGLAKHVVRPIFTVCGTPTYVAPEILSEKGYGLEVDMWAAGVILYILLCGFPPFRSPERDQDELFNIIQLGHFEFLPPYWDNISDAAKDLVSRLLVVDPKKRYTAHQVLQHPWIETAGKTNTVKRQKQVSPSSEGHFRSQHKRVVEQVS
T3 sequence (Q5VT25 whole entry): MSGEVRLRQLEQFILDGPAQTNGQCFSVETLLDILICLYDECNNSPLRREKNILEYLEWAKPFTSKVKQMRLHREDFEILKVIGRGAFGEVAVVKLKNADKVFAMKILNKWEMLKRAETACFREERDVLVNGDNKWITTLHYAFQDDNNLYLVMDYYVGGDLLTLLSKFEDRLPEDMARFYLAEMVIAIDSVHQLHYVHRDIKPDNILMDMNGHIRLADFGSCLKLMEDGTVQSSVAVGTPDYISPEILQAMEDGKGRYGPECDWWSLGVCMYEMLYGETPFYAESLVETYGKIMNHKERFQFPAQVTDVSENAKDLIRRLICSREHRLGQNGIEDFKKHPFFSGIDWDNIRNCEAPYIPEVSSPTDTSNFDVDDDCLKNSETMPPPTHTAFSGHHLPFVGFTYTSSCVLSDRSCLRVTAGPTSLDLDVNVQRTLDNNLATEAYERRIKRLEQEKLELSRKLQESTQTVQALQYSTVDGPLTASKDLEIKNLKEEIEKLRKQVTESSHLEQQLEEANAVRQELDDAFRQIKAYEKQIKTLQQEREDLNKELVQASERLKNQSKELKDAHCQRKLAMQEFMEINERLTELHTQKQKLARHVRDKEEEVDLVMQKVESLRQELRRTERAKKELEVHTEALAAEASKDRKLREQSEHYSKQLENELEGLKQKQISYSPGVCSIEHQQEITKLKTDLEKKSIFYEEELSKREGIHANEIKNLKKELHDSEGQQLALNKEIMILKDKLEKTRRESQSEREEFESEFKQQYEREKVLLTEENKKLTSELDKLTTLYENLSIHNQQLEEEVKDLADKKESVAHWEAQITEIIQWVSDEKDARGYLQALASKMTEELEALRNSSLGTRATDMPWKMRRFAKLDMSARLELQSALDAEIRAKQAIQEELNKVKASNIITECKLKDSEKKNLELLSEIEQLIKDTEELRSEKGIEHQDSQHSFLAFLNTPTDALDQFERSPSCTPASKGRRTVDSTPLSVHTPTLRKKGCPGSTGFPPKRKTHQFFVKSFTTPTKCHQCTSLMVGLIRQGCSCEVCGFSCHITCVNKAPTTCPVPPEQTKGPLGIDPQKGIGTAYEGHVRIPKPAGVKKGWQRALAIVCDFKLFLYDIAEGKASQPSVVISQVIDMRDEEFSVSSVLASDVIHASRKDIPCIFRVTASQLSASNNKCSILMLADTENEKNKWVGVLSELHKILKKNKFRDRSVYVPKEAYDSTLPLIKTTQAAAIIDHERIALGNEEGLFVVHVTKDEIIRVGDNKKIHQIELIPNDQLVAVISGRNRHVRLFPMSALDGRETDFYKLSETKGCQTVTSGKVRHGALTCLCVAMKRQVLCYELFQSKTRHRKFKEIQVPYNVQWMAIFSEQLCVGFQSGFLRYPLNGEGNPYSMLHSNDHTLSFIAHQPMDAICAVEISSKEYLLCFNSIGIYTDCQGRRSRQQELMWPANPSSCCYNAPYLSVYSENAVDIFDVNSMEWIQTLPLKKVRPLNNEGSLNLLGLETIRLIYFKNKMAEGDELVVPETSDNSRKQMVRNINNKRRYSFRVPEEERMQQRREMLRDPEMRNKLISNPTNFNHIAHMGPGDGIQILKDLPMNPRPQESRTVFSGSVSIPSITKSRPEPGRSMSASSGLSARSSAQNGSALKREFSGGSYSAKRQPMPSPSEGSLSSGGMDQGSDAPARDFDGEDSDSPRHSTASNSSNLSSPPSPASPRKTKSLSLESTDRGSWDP
T8 sequence (Q96RR4 whole entry): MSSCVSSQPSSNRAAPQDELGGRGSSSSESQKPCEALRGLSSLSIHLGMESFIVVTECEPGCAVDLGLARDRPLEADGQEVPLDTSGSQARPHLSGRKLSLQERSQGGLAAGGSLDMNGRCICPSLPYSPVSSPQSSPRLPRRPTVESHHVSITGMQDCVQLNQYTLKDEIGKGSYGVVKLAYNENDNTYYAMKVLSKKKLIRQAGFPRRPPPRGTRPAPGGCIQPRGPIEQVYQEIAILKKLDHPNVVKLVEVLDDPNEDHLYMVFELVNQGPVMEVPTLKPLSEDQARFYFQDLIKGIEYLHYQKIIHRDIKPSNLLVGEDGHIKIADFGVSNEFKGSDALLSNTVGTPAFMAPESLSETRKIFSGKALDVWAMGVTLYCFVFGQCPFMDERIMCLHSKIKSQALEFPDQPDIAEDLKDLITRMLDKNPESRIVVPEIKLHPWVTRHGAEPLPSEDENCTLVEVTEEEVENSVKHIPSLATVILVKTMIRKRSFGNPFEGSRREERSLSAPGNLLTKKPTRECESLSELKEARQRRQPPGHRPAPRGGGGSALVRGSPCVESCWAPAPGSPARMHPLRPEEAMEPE
T1 sequence (O60331 whole entry): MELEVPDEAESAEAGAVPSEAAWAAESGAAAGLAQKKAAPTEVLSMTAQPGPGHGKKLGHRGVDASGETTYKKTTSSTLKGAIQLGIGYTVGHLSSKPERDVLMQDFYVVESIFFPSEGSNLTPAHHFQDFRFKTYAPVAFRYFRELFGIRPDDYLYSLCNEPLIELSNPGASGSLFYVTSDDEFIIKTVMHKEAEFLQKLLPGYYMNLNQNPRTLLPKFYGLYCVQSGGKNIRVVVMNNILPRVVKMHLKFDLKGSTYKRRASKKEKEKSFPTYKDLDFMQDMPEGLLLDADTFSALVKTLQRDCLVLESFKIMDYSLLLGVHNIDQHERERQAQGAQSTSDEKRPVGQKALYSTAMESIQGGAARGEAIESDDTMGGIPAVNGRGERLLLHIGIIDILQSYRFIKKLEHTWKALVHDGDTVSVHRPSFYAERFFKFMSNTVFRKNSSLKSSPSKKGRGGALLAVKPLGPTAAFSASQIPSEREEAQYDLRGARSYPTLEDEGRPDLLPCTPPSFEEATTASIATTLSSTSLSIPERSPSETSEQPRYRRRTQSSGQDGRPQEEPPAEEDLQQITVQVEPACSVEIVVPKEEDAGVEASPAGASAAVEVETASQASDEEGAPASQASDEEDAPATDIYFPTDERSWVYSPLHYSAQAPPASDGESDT
T11 sequence (Q9UPE1 whole entry): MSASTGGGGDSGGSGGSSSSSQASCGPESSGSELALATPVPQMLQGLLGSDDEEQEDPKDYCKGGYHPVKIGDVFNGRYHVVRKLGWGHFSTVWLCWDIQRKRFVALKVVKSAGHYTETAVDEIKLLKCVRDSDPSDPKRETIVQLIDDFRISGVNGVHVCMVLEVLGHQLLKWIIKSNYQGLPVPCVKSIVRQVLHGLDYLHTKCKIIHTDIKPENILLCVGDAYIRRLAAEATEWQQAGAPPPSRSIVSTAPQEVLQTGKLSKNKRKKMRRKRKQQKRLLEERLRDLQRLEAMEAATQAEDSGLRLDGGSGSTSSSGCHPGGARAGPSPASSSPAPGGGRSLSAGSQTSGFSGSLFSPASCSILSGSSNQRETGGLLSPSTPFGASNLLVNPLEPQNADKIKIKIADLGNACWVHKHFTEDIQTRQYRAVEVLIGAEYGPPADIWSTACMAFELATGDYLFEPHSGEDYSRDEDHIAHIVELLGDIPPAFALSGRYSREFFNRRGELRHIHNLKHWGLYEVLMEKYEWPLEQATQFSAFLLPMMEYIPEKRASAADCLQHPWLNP
T2 sequence (Q9H1R3 whole entry): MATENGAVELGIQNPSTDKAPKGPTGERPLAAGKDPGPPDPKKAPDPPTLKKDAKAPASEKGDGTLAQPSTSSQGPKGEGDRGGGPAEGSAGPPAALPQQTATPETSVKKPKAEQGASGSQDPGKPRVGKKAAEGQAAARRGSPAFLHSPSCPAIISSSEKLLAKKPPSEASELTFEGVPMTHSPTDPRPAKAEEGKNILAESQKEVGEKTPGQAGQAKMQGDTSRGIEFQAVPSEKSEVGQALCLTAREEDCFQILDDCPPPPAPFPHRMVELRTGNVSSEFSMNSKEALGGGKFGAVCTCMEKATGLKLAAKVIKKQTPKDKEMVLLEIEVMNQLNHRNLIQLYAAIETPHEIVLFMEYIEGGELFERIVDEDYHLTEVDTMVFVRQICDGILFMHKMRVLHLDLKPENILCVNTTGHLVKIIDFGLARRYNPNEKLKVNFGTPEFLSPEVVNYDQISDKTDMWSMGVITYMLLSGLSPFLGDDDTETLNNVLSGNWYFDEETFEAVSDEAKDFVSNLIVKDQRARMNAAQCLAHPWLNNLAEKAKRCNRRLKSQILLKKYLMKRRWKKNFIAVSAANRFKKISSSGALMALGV

Structure (SMILES) | remaining binding at 1 µM [1] [%] | remaining binding at 1 µM [2] [%] | remaining binding at 1 µM [3] [%] | remaining binding at 1 µM [4] [%] | remaining binding at 1 µM [5] [%] | remaining binding at 1 µM [6] [%] | remaining binding at 1 µM [7] [%] | remaining binding at 1 µM [8] [%] | remaining binding at 1 µM [9] [%] | remaining binding at 1 µM [10] [%] | remaining binding at 1 µM [11] [%] | remaining binding at 1 µM [12] [%]
Cc1ccc(C(=O)Nc2ccc(CN3CCN(C)CC3)c(C(F)(F)F)c2)cc1C#Cc1cnc2c(Nc3cnn(C)c3)cccn12 [Example 1, 4-methyl-3-((8-((1-methyl-1H-pyrazol-4-yl)amino)imidazo[1,2-a]pyridin-3-yl)ethynyl)-N-(4-((4-methylpiperazin-1-yl)methyl)-3-(trifluoromethyl)phenyl)benzamide] | 88 | 6 | 96 | 2 | 90 | 10 | 100 | 32 | 98 | 1 | 82 | 2
Cc1cn(-c2cc(NC(=O)c3ccc(C)c(C#Cc4cnc5c(Nc6cnn(C)c6)cccn45)c3)cc(C(F)(F)F)c2)cn1 [Example 12, 4-methyl-N-(3-(4-methyl-1H-imidazol-1-yl)-5-(trifluoromethyl)phenyl)-3-((8-((1-methyl-1H-pyrazol-4-yl)amino)imidazo[1,2-a]pyridin-3-yl)ethynyl)benzamide] | 71 | 40 | 91 | 2 | 99 | 100 | 97 | 77 | 88 | 1 | 100 | 11
Cc1ccc(NC(=O)C2(C(=O)Nc3ccc(F)cc3)CC2)cc1C#Cc1cnc2c(Nc3cnn(C(C)C)c3)cccn12 [Example 78] | 92 | 100 | 100 | 71 | 94 | 95 | 100 | 100 | 100 | 21 | 100 | 100
